According to patent US20080113974A1, “Heterocyclic Oxime Compounds, A Process For Their Preparation And Pharmaceutical Compositions Containing Them” (LES LABORATOIRES SERVIER, priority 2005, published 2008):

Test system: ob/ob mouse
Assay: Antidiabetic and hypolipaemic effect in the ob/ob mouse
Assay type: in vivo
Details: dose of 3 mg/kg; for variation in body weight: four days, body weight measured daily
Experimental: The 10-week-old female ob/ob mouse (Harlan) is used for the in vivo tests. The animals are kept in a light-darkness cycle of 12 hours at 25° C. The mouse has a basal hyperglycaemia of 2 g/l. The animals are randomly selected with regard to their glycaemia to form groups of six. […] […] The control groups receive the solvents under the same conditions as the treated groups.
The activity of the products is evaluated by measuring glycaemia, triglycerides and insulinaemia 24 hours after the final administration and by measuring body weight daily.

[1] = twice per day for four days, 24 hours after the final administration

SMILES	variation in body weight	reduction in glycaemia [1] [%]	reduction in insulinaemia [1] [%]	reduction in triglycerides [1] [%]
CN(CCOc1ccc(CC2SC(=O)NC2=O)cc1)c1ccccn1 (centres unmarked) [rosiglitazone, reference compound]	significant increase	–	–	–
CCOC(Cc1ccc(OCCN2C(=O)COc3ccc(C(=NO)c4ccccc4)cc32)cc1)C(=O)O (centres unmarked) [Example 11]	insignificant variation	25	22	45
